Assay results: ChEMBL document CHEMBL1128274, “6-Aminoquinolones: a new class of quinolone antibacterials?” (1995)
In brackets after ≈: the same amount, converted by molar mass.

Assays:
Type in all cases: functional
Escherichia coli [1] = test: Tested in vitro for inhibitory activity against gram negative bacteria Escherichia coli ATCC 8739 strain
Enterobacter cloacae = test: Tested in vitro for inhibitory activity against gram negative bacteria Enterobacter cloacae OMNFI 174 strain.
[2] = system: Staphylococcus epidermidis; test: Tested in vitro for inhibitory activity against gram positive bacteria Staphylococcus epidermidis CPHL A2 strain
Pseudomonas aeruginosa = test: Tested in vitro for inhibitory activity against gram negative bacteria Pseudomonas aeruginosa ATCC 9027 strain
Enterococcus faecalis = test: Tested in vitro for inhibitory activity against gram positive bacteria Streptococcus faecalis LEP Br strain
Staphylococcus aureus [3] = test: Tested in vitro for inhibitory activity against gram positive bacteria Staphylococcus aureus ATCC 6538 strain
[4] = system: Staphylococcus epidermidis; test: Tested in vitro for inhibitory activity against gram positive bacteria Staphylococcus epidermidis HCF berset C strain
Escherichia coli [5] = test: Tested in vitro for inhibitory activity against gram negative bacteria Escherichia coli ISF 432 strain.
Staphylococcus aureus [6] = test: Tested in vitro for inhibitory activity against gram positive bacteria Staphylococcus aureus MPR 5 strain
Providencia stuartii = test: Tested in vitro for inhibitory activity against gram negative bacteria Providencia stuartii CNUR 5 strain
[7] = system: Acinetobacter calcoaceticus; test: Tested in vitro for inhibitory activity against gram negative bacteria Acinetobacter calcoaceticus OSMPV 113 strain.
Klebsiella pneumoniae = test: Tested in vitro for inhibitory activity against gram negative bacteria Klebsiella pneumoniae ATCC 10031 strain
Shigella = test: Tested in vitro for inhibitory activity against gram negative bacteria Shigella enteritidis
Escherichia coli [8] = test: Tested in vitro for inhibitory activity against gram negative bacteria Escherichia coli ISF 432 cell lines at 25 ug/mL
Escherichia coli [9] = test: Tested in vitro for inhibitory activity against gram negative bacteria Escherichia coli ATCC 8739 cell lines at 25 ug/mL

Structure (SMILES) | MIC (Escherichia coli [1]) | MIC (Enterobacter cloacae) | MIC [2] | MIC (Pseudomonas aeruginosa) | MIC (Enterococcus faecalis) | MIC (Staphylococcus aureus [3]) | MIC [4] | MIC (Escherichia coli [5]) | MIC (Staphylococcus aureus [6]) | MIC (Providencia stuartii) | MIC [7] | MIC (Klebsiella pneumoniae) | MIC (Shigella) | MIC (Escherichia coli [8]) | MIC (Escherichia coli [9])
Nc1cc2c(=O)c(C(=O)O)cn(C3CC3)c2cc1N1CCSC1 | 0.5 µg/mL (≈ 1.51 µM) | 16 µg/mL (≈ 48.3 µM) | 64 µg/mL (≈ 193 µM) | 128 µg/mL (≈ 386 µM) | 128 µg/mL (≈ 386 µM) | 64 µg/mL (≈ 193 µM) | 64 µg/mL (≈ 193 µM) | 1 µg/mL (≈ 3.02 µM) | 128 µg/mL (≈ 386 µM) | 128 µg/mL (≈ 386 µM) | 128 µg/mL (≈ 386 µM) | 0.5 µg/mL (≈ 1.51 µM) | 32 µg/mL (≈ 96.6 µM) | – | –
Nc1cc2c(=O)c(C(=O)O)cn(-c3ccc(F)cc3)c2cc1N1CCSCC1 | 0.06 µg/mL (≈ 0.15 µM) | 4 µg/mL (≈ 10 µM) | 4 µg/mL (≈ 10 µM) | 128 µg/mL (≈ 320 µM) | 128 µg/mL (≈ 320 µM) | 0.5 µg/mL (≈ 1.25 µM) | 4 µg/mL (≈ 10 µM) | 0.03 µg/mL (≈ 0.0751 µM) | 1 µg/mL (≈ 2.5 µM) | 4 µg/mL (≈ 10 µM) | 4 µg/mL (≈ 10 µM) | 0.03 µg/mL (≈ 0.0751 µM) | 4 µg/mL (≈ 10 µM) | – | –
CN1CCN(c2cc3c(cc2N)c(=O)c(C(=O)O)cn3-c2ccc(F)cc2)CC1 | 0.12 µg/mL (≈ 0.303 µM) | 4 µg/mL (≈ 10.1 µM) | 8 µg/mL (≈ 20.2 µM) | 8 µg/mL (≈ 20.2 µM) | 64 µg/mL (≈ 161 µM) | 8 µg/mL (≈ 20.2 µM) | 8 µg/mL (≈ 20.2 µM) | 0.12 µg/mL (≈ 0.303 µM) | 4 µg/mL (≈ 10.1 µM) | 4 µg/mL (≈ 10.1 µM) | 16 µg/mL (≈ 40.4 µM) | 0.12 µg/mL (≈ 0.303 µM) | 4 µg/mL (≈ 10.1 µM) | – | –
CC(C)(C)n1cc(C(=O)O)c(=O)c2cc(N)c(N3CCc4ccccc43)cc21 | 0.12 µg/mL (≈ 0.318 µM) | 8 µg/mL (≈ 21.2 µM) | 4 µg/mL (≈ 10.6 µM) | 32 µg/mL (≈ 84.8 µM) | 64 µg/mL (≈ 170 µM) | 2 µg/mL (≈ 5.3 µM) | 4 µg/mL (≈ 10.6 µM) | 0.12 µg/mL (≈ 0.318 µM) | 2 µg/mL (≈ 5.3 µM) | 4 µg/mL (≈ 10.6 µM) | 8 µg/mL (≈ 21.2 µM) | 0.12 µg/mL (≈ 0.318 µM) | 8 µg/mL (≈ 21.2 µM) | – | –
Nc1cc2c(=O)c(C(=O)O)cn(C3CC3)c2cc1N1CCCC1 | 0.25 µg/mL (≈ 0.798 µM) | 8 µg/mL (≈ 25.5 µM) | 128 µg/mL (≈ 408 µM) | 128 µg/mL (≈ 408 µM) | 128 µg/mL (≈ 408 µM) | 128 µg/mL (≈ 408 µM) | 128 µg/mL (≈ 408 µM) | 0.25 µg/mL (≈ 0.798 µM) | 128 µg/mL (≈ 408 µM) | 128 µg/mL (≈ 408 µM) | 128 µg/mL (≈ 408 µM) | 0.25 µg/mL (≈ 0.798 µM) | 16 µg/mL (≈ 51.1 µM) | – | –
CC(C)(C)n1cc(C(=O)O)c(=O)c2cc(N)c(N3CCN(c4ccccn4)CC3)cc21 | 0.5 µg/mL (≈ 1.19 µM) | 64 µg/mL (≈ 152 µM) | 1 µg/mL (≈ 2.37 µM) | 128 µg/mL (≈ 304 µM) | 16 µg/mL (≈ 38 µM) | 1 µg/mL (≈ 2.37 µM) | 2 µg/mL (≈ 4.74 µM) | 0.5 µg/mL (≈ 1.19 µM) | 1 µg/mL (≈ 2.37 µM) | 128 µg/mL (≈ 304 µM) | 1 µg/mL (≈ 2.37 µM) | 0.25 µg/mL (≈ 0.593 µM) | 64 µg/mL (≈ 152 µM) | – | –
C[C@@H]1CN(c2cc3c(cc2N)c(=O)c(C(=O)O)cn3C2CC2)C[C@H](C)N1 | 0.03 µg/mL (≈ 0.0842 µM) | 0.5 µg/mL (≈ 1.4 µM) | 2 µg/mL (≈ 5.61 µM) | 2 µg/mL (≈ 5.61 µM) | 32 µg/mL (≈ 89.8 µM) | 8 µg/mL (≈ 22.4 µM) | 4 µg/mL (≈ 11.2 µM) | 0.03 µg/mL (≈ 0.0842 µM) | 8 µg/mL (≈ 22.4 µM) | 4 µg/mL (≈ 11.2 µM) | 8 µg/mL (≈ 22.4 µM) | 0.03 µg/mL (≈ 0.0842 µM) | 0.25 µg/mL (≈ 0.701 µM) | – | –
Nc1cc2c(=O)c(C(=O)O)cn(C3CC3)c2cc1N1CCNCC1 | 0.25 µg/mL (≈ 0.761 µM) | 0.25 µg/mL (≈ 0.761 µM) | 16 µg/mL (≈ 48.7 µM) | 2 µg/mL (≈ 6.09 µM) | 128 µg/mL (≈ 390 µM) | 64 µg/mL (≈ 195 µM) | 16 µg/mL (≈ 48.7 µM) | 0.03 µg/mL (≈ 0.0914 µM) | 64 µg/mL (≈ 195 µM) | 32 µg/mL (≈ 97.5 µM) | 16 µg/mL (≈ 48.7 µM) | 0.25 µg/mL (≈ 0.761 µM) | 0.5 µg/mL (≈ 1.52 µM) | – | –
CN1CCN(c2nc3c(cc2N)c(=O)c(C(=O)O)cn3C2CC2)CC1 | – | 0.12 µg/mL (≈ 0.349 µM) | 4 µg/mL (≈ 11.6 µM) | 2 µg/mL (≈ 5.82 µM) | 32 µg/mL (≈ 93.2 µM) | 4 µg/mL (≈ 11.6 µM) | 4 µg/mL (≈ 11.6 µM) | – | 4 µg/mL (≈ 11.6 µM) | 2 µg/mL (≈ 5.82 µM) | 4 µg/mL (≈ 11.6 µM) | 0.03 µg/mL (≈ 0.0874 µM) | 0.12 µg/mL (≈ 0.349 µM) | 0.03 µg/mL (≈ 0.0874 µM) | 0.12 µg/mL (≈ 0.349 µM)
CN1CCN(c2nc3c(c(N)c2N)c(=O)c(C(=O)O)cn3C2CC2)CC1 | 0.25 µg/mL (≈ 0.698 µM) | 0.25 µg/mL (≈ 0.698 µM) | 2 µg/mL (≈ 5.58 µM) | 8 µg/mL (≈ 22.3 µM) | 8 µg/mL (≈ 22.3 µM) | 2 µg/mL (≈ 5.58 µM) | 2 µg/mL (≈ 5.58 µM) | 0.01 µg/mL (≈ 0.0279 µM) | 2 µg/mL (≈ 5.58 µM) | 0.5 µg/mL (≈ 1.4 µM) | 0.5 µg/mL (≈ 1.4 µM) | 0.01 µg/mL (≈ 0.0279 µM) | 0.25 µg/mL (≈ 0.698 µM) | – | –
N#CCN1CCN(c2cc3c(cc2N)c(=O)c(C(=O)O)cn3C2CC2)CC1 | 4 µg/mL (≈ 10.9 µM) | 2 µg/mL (≈ 5.44 µM) | 64 µg/mL (≈ 174 µM) | 64 µg/mL (≈ 174 µM) | – | 64 µg/mL (≈ 174 µM) | 64 µg/mL (≈ 174 µM) | 2 µg/mL (≈ 5.44 µM) | 64 µg/mL (≈ 174 µM) | 2 µg/mL (≈ 5.44 µM) | 64 µg/mL (≈ 174 µM) | 2 µg/mL (≈ 5.44 µM) | 32 µg/mL (≈ 87.1 µM) | – | –
CC1CN(c2cc3c(cc2N)c(=O)c(C(=O)O)cn3C2CC2)CCN1 (stereo not given) | 0.03 µg/mL (≈ 0.0876 µM) | 0.25 µg/mL (≈ 0.73 µM) | 4 µg/mL (≈ 11.7 µM) | 2 µg/mL (≈ 5.84 µM) | 32 µg/mL (≈ 93.5 µM) | 16 µg/mL (≈ 46.7 µM) | 4 µg/mL (≈ 11.7 µM) | 0.03 µg/mL (≈ 0.0876 µM) | 16 µg/mL (≈ 46.7 µM) | 16 µg/mL (≈ 46.7 µM) | 16 µg/mL (≈ 46.7 µM) | 0.03 µg/mL (≈ 0.0876 µM) | 0.25 µg/mL (≈ 0.73 µM) | – | –
